Source: patent publication US20230286983A1 (4E Therapeutics, Inc., priority 2020, published 2023)
pIC50: −log10 of the molar value.

What was measured:
[1] = target: T1, death-associated protein kinase-related apoptosis-inducing protein kinase 1 (DRAK1) (Homo sapiens, UniProt Q9UEE5); assay: Off-target kinase screen DRAK1; format: biochemical; conditions: 1 μM test compound
T1 sequence (Q9UEE5 1-414): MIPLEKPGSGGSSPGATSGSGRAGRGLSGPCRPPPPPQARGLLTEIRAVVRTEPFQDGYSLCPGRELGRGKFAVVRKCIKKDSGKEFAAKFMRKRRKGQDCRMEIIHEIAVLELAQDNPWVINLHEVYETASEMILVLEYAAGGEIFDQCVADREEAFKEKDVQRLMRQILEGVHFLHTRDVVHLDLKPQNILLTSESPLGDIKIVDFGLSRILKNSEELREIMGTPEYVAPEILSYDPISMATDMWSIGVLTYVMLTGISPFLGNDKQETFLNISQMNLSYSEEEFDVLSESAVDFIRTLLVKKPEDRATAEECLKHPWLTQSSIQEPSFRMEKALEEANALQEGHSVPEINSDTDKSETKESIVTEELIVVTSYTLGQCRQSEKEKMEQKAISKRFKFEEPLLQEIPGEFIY
Description: (§1) These kinases were chosen because they are the only known off-target hit kinases for eFT508. These assays were done using recombinant human kinases (CLK4, DRAK1 and PKG2) in a substrate phosphorylation assay. % activity remaining after MNK inhibitor treatment is indicated in Table 12.

[2] = tested on: eIF4E phosphorylation at Serine 209 in the human osteosarcoma (U2OS) cell line; assay: eIF4E phosphorylation in U2OS cells (fluorescent plate reader); format: cell-based; conditions: Homo sapiens, U2OS; eIF4E phosphorylation at Serine 209, 2 hours exposure
Procedure: The ability of MNK inhibitors described herein to inhibit eIF4E phosphorylation at Serine 209 in the human osteosarcoma (U2OS) cell line was tested by exposing the cells to compound for 2 hours and then measuring eIF4E phosphorylation with a phosphorylation-specific antibody in a fluorescent plate reader.

P-gp (human MDR1, ABCB1) = assay: MDCK-MDR1 permeability (blood brain barrier permeability); format: in vitro ADME, Canine; conditions: dog; for efflux ratio at 5 μM: MDCK-MDR1, 5 μM, read-out: Efflux ratio (ratio B-A/A-B); for Papp A→B at 5 μM: MDCK-MDR1, Apical to basolateral transport; for Papp A→B at 5 μM / Papp B→A at 5 μM: average of two experiments; for Papp B→A at 5 μM: MDCK-MDR1, Basolateral to apical transport
[3] = Liver microsome stability, mouse; format: in vitro ADME; conditions: for half-life: mouse, liver microsomes
[4] = target: T2, protein kinase G 2 (PKG2) (Homo sapiens, UniProt Q13237); assay: Off-target kinase screen PKG2; format: biochemical; conditions: 1 μM test compound
T2 sequence (Q13237 1-762): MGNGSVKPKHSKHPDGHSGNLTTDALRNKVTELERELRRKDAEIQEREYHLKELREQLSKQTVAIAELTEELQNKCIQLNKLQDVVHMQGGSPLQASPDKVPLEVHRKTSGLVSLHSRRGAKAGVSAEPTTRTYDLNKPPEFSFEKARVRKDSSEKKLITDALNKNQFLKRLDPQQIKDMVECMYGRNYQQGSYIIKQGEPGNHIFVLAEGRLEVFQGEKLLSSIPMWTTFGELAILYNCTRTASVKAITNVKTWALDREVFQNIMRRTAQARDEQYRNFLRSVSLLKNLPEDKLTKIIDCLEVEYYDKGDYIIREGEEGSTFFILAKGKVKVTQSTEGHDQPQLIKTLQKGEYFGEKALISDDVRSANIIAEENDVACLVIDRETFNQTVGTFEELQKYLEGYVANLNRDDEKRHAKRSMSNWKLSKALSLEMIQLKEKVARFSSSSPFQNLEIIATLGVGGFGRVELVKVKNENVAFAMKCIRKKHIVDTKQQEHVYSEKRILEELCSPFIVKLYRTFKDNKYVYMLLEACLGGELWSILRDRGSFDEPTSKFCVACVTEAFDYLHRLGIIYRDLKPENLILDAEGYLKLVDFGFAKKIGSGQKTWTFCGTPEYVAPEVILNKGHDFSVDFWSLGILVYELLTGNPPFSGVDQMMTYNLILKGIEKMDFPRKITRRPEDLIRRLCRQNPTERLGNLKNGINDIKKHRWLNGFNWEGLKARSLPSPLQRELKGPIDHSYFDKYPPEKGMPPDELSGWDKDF
Description: as §1

MNK1 = MNK1 (Homo sapiens, UniProt Q9BUB5); assay: MNK1 substrate phosphorylation assay; format: biochemical; conditions: recombinant human kinase
MNK1, sequence (Q9BUB5 whole entry): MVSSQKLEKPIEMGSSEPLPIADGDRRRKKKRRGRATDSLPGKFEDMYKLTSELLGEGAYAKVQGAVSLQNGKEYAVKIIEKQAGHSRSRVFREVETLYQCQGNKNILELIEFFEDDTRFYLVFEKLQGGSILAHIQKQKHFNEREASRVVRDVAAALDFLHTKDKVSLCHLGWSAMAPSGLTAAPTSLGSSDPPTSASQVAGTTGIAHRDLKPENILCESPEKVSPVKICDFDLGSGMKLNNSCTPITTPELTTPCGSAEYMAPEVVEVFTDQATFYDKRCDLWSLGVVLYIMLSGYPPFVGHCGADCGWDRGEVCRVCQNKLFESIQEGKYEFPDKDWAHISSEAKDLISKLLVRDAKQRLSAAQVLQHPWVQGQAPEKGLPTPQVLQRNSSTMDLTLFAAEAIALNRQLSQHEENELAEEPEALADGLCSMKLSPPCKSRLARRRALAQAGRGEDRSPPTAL

[5] = target: Cdc2-like kinase 4 (CLK4) (Homo sapiens, UniProt Q9HAZ1); assay: Off-target kinase screen CLK4; format: biochemical; conditions: 1 μM test compound
Cdc2-like kinase 4 (CLK4), sequence (Q9HAZ1 whole entry): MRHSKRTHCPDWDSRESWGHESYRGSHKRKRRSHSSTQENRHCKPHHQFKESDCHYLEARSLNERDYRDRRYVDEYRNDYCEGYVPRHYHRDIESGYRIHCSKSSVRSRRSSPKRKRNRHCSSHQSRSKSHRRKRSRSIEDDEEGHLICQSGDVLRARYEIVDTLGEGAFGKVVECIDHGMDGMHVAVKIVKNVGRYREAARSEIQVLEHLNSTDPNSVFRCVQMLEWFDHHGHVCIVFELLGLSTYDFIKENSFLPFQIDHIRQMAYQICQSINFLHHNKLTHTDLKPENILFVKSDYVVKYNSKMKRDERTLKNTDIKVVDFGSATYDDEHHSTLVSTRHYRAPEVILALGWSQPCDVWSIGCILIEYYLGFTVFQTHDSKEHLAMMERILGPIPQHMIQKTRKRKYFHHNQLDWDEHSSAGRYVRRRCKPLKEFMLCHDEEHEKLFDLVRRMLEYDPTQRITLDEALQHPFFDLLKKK
Description: as §1

[6] = tested on: eIF4E phosphorylation at Serine 209 in Karpas 299; assay: eIF4E phosphorylation in Karpas 299 cells (sandwich ELISA); format: cell-based; conditions: Homo sapiens, read-out: Karpas 299 cell IC50
Procedure: The ability of MNK inhibitors described herein to inhibit eIF4E phosphorylation at Serine 209 in Karpas 299, Human Non-Hodgkin's Ki-positive Large Cell Lymphoma cell line was tested by sandwich enzyme linked immune-absorbance assay.

[7] = Liver microsome stability, human; format: in vitro ADME; conditions: liver microsomes; for half-life: read-out: Human liver microsomes t1/2
[8] = tested on: eIF4E phosphorylation at Serine 209 in the human embryonic kidney (HEK) 293 cell line; assay: eIF4E phosphorylation in HEK 293 cells (fluorescent plate reader); format: cell-based; conditions: eIF4E phosphorylation at Serine 209, 2 hours exposure
Summary of the method: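 HEK-293 cells were treated with compound for 2 h, then methanol-fixed and Triton-permeabilized. Ser209 phospho-eIF4E was stained with primary antibody (1:2000, overnight) and an Alexa Fluor 488 secondary. Fluorescence was normalized to DAPI, and IC50 was fitted from concentration-response data.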

IL-6 evoked grimace = IL-6 evoked grimace test; format: in vivo, ICR mice
Procedure: Institute for Cancer Research (ICR) mice were used in these experiments. Mice were bred in house at University of Texas at Dallas and used at between 12 and 24 weeks of age. Mice were habituated to plexiglass boxes of approximately 4×6 inches in size with openable tops. Habituation took place over 2 days with animals exposed to the boxes for at least 30 min. A blinded observer scored baseline grimacing using the method previously described by Mogil and colleagues (Langford, et al., Coding of facial expressions of pain in the laboratory mouse. Nat Methods (2010) 7:447-449.). On test day, mice were given test compounds 1 hr prior to injection of interleukin 6 (human recombinant IL-6, R&D Systems) which was given at a dose of 0.1 ng in saline via an intraplantar injection as described previously (Moy et al. The MNK-eIF4E Signaling Axis Contributes to Injury-Induced Nociceptive Plasticity and the Development of Chronic Pain. J Neurosci (2017) 37:7481-7499.). Test compounds were given orally (PO) via a flexible oral gavage canula built for mice. 4ET-01-021 (10.0, 3.0, and 1.0 mg/kg) and 4ET-03-052B (10.0 mg/kg) are efficacious in the IL-6 evoked grimace test in mice. FIG. 5 depicts a comparison of effect size in the IL-6 evoked grimace test. Effect sizes were calculated per mouse by subtracting the baseline grimace score from the sum of the grimace scores for 1 and 3 hr time points. […] FIG. 6 is a graph showing the effect size in the IL-6 evoked grimace test vs. dose of 4ET-01-021.

MDCK-MDR1 = MDCK-MDR1 permeability (blood brain barrier permeability); format: in vitro ADME, Canine; conditions: 5 μM
MNK2 = MNK2 (Homo sapiens, UniProt Q9HBH9); assay: MNK2 substrate phosphorylation assay; format: biochemical; conditions: recombinant human kinase
MNK2, sequence (Q9HBH9 whole entry): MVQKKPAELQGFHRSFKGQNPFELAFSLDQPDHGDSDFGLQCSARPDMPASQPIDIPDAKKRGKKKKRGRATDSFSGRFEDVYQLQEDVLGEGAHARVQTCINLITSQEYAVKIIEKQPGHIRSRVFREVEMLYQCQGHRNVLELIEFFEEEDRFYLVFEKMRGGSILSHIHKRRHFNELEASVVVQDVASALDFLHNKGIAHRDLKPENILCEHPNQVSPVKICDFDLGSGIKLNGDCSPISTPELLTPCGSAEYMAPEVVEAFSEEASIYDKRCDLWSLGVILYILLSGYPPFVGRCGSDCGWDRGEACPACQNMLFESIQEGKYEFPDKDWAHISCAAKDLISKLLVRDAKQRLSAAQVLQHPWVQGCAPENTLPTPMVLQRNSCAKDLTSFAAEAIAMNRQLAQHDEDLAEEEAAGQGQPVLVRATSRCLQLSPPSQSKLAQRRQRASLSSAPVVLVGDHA

[9] = Liver microsome stability, rat; format: in vitro ADME; conditions: Rat liver microsomes (#); for microsomal CLint: read-out: CLint rodent; for half-life: read-out: Rodent liver microsomes t1/2
[10] = tested on: diffuse large B cell lymphoma (DLBCL) cell lines; conditions: multiple DLBCL cell lines; cited from earlier work
[11] = tested on: eIF4E phosphorylation at serine 209 in various tumor cell lines; conditions: cited from earlier work

| Compound | remaining activity at 1 µM [1] | pIC50 [2] | efflux ratio at 5 μM (P-gp (human MDR1, ABCB1)) | Papp A→B at 5 μM (P-gp (human MDR1, ABCB1)) | Papp B→A at 5 μM (P-gp (human MDR1, ABCB1)) | remaining activity at 1 µM [4] | pIC50 (MNK1) | remaining activity at 1 µM [5] | pIC50 [6] | microsomal CLint [7] | half-life [7] | pIC50 (MNK2) | microsomal CLint [9] | half-life [9] | further results |
| --- | --- | --- | --- | --- | --- | --- | --- | --- | --- | --- | --- | --- | --- | --- | --- |
| Cc1cc(Nc2cc(N)ncn2)c(=O)n2c1C(=O)NC21CCC(O)CC1 (centres unmarked) [Compound 4ET-01-005, 6′-((6-Aminopyrimidin-4-yl)amino)-4-hydroxy-8′-methyl-2′H-spiro[cyclohexane-1,3′-imidazo[1,5-a]pyridine]-1′,5′-dione] | 41% | 8.09 | 2.7 | 0.2 ×10⁻⁶ cm/s | 0.6 ×10⁻⁶ cm/s | 100% | 8.01 | 63% | 7.59 | 3.6 µL/min/mg | 6.42 h | – | – | – | microsomal CLint ([3]; Mouse liver microsomes (*), read-out: CLint rodent): 3.53 µL/min/mg; half-life ([3]; Mouse liver microsomes (*), Table 11a, read-out: Rodent liver microsomes t1/2): 6.55 h; pIC50 ([8]; Homo sapiens, HEK293): 8.09 |
| Cc1cc(Nc2cc(NC(=O)C3CC3)ncn2)c(=O)n2c1C(=O)NC21Cc2ccccc2[C@@H]1F (single isomer, unassigned) [Compound 4ET-03-052B, N-(6-((1′-Fluoro-8-methyl-1,5-dioxo-1,1′,3′,5-tetrahydro-2H-spiro[imidazo[1,5-a]pyridine-3,2′-inden]-6-yl)amino)pyrimidin-4-yl)cyclopropanecarboxamide] | – | – | – | – | – | – | 7.70 | – | – | – | – | 8.79 | – | – | efficacy in the IL-6 evoked grimace test (IL-6 evoked grimace; PO 1 hr prior to IL-6, 4ET-01-021 10.0, 3.0 and 1.0 mg/kg, 4ET-03-052B 10.0 mg/kg): efficacious; effect size in the IL-6 evoked grimace test (IL-6 evoked grimace; sum of grimace scores at 1 and 3 hr minus baseline): statistically-significant effect sizes; Efflux ratio (ratio B-A/A-B) (MDCK-MDR1): 2.8; Papp A-B (MDCK-MDR1; Apical to basolateral transport, average of two experiments): 22.9 ×10⁻⁶ cm/s; Papp B-A (MDCK-MDR1; Basolateral to apical transport, average of two experiments): 63.3 ×10⁻⁶ cm/s; T1/2 ([3]; mouse liver microsomes, Table 11b): 2.88 h; pIC50 [8]: 7.93 |
| Cc1cc(Nc2cc(N)ncn2)c(=O)n2c1C(=O)NC21CCOCC1 [Compound 4ET-01-002, 6-((6-Aminopyrimidin-4-yl)amino)-8-methyl-2′,3′,5′,6′-tetrahydro-2H-spiro[imidazo[1,5-a]pyridine-3,4′-pyran]-1,5-dione] | 72% | 8.16 | 2.2 | 2.6 ×10⁻⁶ cm/s | 5.6 ×10⁻⁶ cm/s | 97% | 7.55 | 100% | 7.48 | 2.17 µL/min/mg | 10.7 h | 8.59 | 2.7 µL/min/mg | 8.57 h | pIC50 ([8]; Homo sapiens, HEK293, 2 h): 7.73 |
| Cc1cc(Nc2cc(N)ncn2)c(=O)n2c1C(=O)NC21CCCCC1 [eFT508, reference compound] | 24% | – | – | 26.8 ×10⁻⁶ cm/s | 41.7 ×10⁻⁶ cm/s | 100% | – | 68% | – | 1.88 µL/min/mg | 12.3 h | – | 2.86 µL/min/mg | 8.07 h | anti-proliferative activity [10]: anti-proliferative activity; pIC50 [11]: 7.80 to 8.70; half-life ([3]; mouse liver microsomes, Table 11b, read-out: T1/2): 8.07 h |
